Results on 33 compounds are retold here after patent US11059786B2, “Aminopyridine compounds and methods for the preparation and use thereof” (Cortexyme, Inc., priority 2017, dated 2021).

The IC50 is the concentration that gives 50% inhibition. High values mean lower potency, low ones higher potency.

T1 sequence (P95493 230-664): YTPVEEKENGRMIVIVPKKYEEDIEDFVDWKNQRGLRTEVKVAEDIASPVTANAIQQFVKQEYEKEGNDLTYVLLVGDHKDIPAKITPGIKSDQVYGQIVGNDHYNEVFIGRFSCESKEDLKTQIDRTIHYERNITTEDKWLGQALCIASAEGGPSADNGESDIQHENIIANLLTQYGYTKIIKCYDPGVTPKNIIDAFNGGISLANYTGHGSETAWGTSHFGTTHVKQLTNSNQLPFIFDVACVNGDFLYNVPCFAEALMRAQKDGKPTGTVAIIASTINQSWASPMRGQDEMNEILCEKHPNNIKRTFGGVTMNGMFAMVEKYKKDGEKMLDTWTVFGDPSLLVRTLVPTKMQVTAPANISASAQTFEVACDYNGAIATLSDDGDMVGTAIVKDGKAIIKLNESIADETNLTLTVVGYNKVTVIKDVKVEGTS

The first test addresses T1, RgpB (Porphyromonas gingivalis, UniProt P95493).
T1 construct: 0.02 nM RgpB, isolated from culture of Porphyromonas gingivalis; endogenous in cells
The experiment in a line: RgpB inhibition, fluorogenic assay. The test is classed as biochemical. Conditions: Activity (RgpB IC50), 0.02 nM RgpB, 10 μM Boc-Phe-Ser-Arg-MCA, 90 minutes, 37° C., pH=7.5. The protocol: The capacities of compounds of the present invention to inhibit the activity of RgpB were measured in a fluorogenic assay similar to those described in Barret Biochemical Journal. 1980, 187(3), 909. The specific assay conditions were as follows. Buffer: pH=7.5, 100 mM Tris-HCl, 75 mM NaCl, 2.5 mM CaCl2, 10 mM cysteine, 1% DMSO after all additions. Protein: 0.02 nM RgpB, isolated from culture of Porphyromonas gingivalis, as described in Pike et al. J. Biol. Chem. 1994, 269(1), 406, and Potempa and Nguyen. Current Protocols in Protein Scienc. 2007, 21.20.1-21.20.27. Fluorogenic substrate: 10 μM Boc-Phe-Ser-Arg-MCA. Time=90 minutes. Temperature=37° C. Each compound: 10 concentrations, starting at either 100 μM or 100 nM, with lower concentrations generated by serial 3-fold dilutions. By testing a range of concentrations for each compound, the concentration required to inhibit the activity of RgpB by 50% (the “IC50”) was determined.
`N#CN1CC(Oc2ccnc(N)c2)C1` [Compound 7, 3-((2-aminopyridin-4-yl)oxy)azetidine-1-carbonitrile]: the concentration for half-maximal inhibition (IC50) was > 100000 nM.

As for `CN(C#N)Cc1ccc2c(N)nccc2c1` [Compound 26, N-((1-aminoisoquinolin-6-yl)methyl)-N-methylcyanamide], the IC50 was in the range of 100 to 1000 nM.

On to `N#CN1CCC1COc1ccnc(N)c1` (stereo not drawn) [Compound 11, 2-(((2-aminopyridin-4-yl)oxy)methyl)azetidine-1-carbonitrile], for which the IC50 is > 100000 nM.

Regarding `N#CN1CC(COc2ccnc(N)c2)C1` [Compound 10, 3-(((2-aminopyridin-4-yl)oxy)methyl)azetidine-1-carbonitrile], the IC50 was > 100000 nM.

In the case of `Nc1ccc(CC(NC(=O)C2CCCC2)C(=O)COc2c(F)ccc(F)c2F)cn1` (stereo not drawn) [Compound 66, N-(1-(6-aminopyridin-3-yl)-3-oxo-4-(2,3,6-trifluorophenoxy)butan-2-yl)cyclopentanecarboxamide], the IC50 was < 100 nM.

As to `N#CN1CCC[C@H]1C(O)Cc1ccnc(N)c1` (stereo partly drawn) [Compound 31, (2S)-2-(2-(2-aminopyridin-4-yl)-1-hydroxyethyl)pyrrolidine-1-carbonitrile], the IC50 is > 100000 nM.

For the compound `COC(C)(C)C(=O)NC(Cc1ccnc(N)c1)C(=O)COc1c(F)c(F)cc(F)c1F` (stereo not drawn) [Compound 65, N-(1-(2-aminopyridin-4-yl)-3-oxo-4-(2,3,5,6-tetrafluorophenoxy)butan-2-yl)-2-methoxy-2-methylpropanamide], the IC50 was < 100 nM.

As for `COC(C)(C)C(=O)NC(Cc1ccc(N)nc1)C(=O)COc1c(F)ccc(F)c1F` (stereo not drawn) [Compound 62, N-(1-(6-aminopyridin-3-yl)-3-oxo-4-(2,3,6-trifluorophenoxy)butan-2-yl)-2-methoxy-2-methylpropanamide], the IC50 was 100 to 1000 nM.

`N#CN1CCC(CCOc2ccnc(N)c2)C1` (stereo not drawn) [Compound 17, 3-(2-((2-aminopyridin-4-yl)oxy)ethyl)pyrrolidine-1-carbonitrile] displayed an IC50 of 1000 to 10000 nM.

For `COC(C)(C)C(=O)NC(Cc1ccc(N)nc1)C(=O)COc1c(F)ccc(F)c1F` (stereo not drawn) [Compound 61, N-(1-(6-aminopyridin-3-yl)-3-oxo-4-(2,3,6-trifluorophenoxy)butan-2-yl)-2-methoxy-2-methylpropanamide], the IC50 was < 100 nM.

In the case of `CN(C#N)Cc1cc2ccnc(N)c2o1` [Compound 48, N-((7-aminofuro[2,3-c]pyridin-2-yl)methyl)-N-methylcyanamide], the IC50 was in the range of 100 to 1000 nM.

For the compound `N#CN1CCC[C@H]1COc1ccnc(N)c1` [Compound 19, (S)-2-(((2-aminopyridin-4-yl)oxy)methyl)pyrrolidine-1-carbonitrile], the IC50 is < 100 nM.

Turning to `CN(C#N)CCOc1ccnc(N)c1` [Compound 13, N-(2-((2-aminopyridin-4-yl)oxy)ethyl)-N-methylcyanamide], the IC50 fell in the range of 100 to 1000 nM.

For `N#CN1CCCC1CCCOc1ccnc(N)c1` (stereo not drawn) [Compound 18, 2-(3-((2-aminopyridin-4-yl)oxy)propyl)pyrrolidine-1-carbonitrile], the IC50 is 10000 to 100000 nM.

As for `N#CN1CCC[C@@H]1c1ccc2c(N)nccc2c1` [Compound 43, (R)-2-(1-aminoisoquinolin-6-yl)pyrrolidine-1-carbonitrile], the IC50 is < 100 nM.

Consider `N#CN1Cc2ccccc2C1COc1ccnc(N)c1` (stereo not drawn) [Compound 25, 1-(((2-aminopyridin-4-yl)oxy)methyl)isoindoline-2-carbonitrile], for which the IC50 lay in the range of 100 to 1000 nM.

With `N#CN1CCCCC1c1ccc2c(N)nccc2c1` (stereo not drawn) [Compound 37, 2-(1-aminoisoquinolin-6-yl)piperidine-1-carbonitrile], the IC50 fell in the range of 100 to 1000 nM.

As for `N#CN1CCCC1CCc1ccnc(N)c1` (stereo not drawn) [Compound 21, 2-(2-(2-aminopyridin-4-yl)ethyl)pyrrolidine-1-carbonitrile], the IC50 lay in the range of 100 to 1000 nM.

Compound `N#CN1c2ccccc2CC1COc1ccnc(N)c1` (stereo not drawn) [Compound 24, 2-(((2-aminopyridin-4-yl)oxy)methyl)indoline-1-carbonitrile] came in with an IC50 of 10000 to 100000 nM.

`N#CN1CCCC(Oc2ccnc(N)c2)C1` (stereo not drawn) [Compound 9, 3-((2-aminopyridin-4-yl)oxy)piperidine-1-carbonitrile] yielded an IC50 of 100 to 1000 nM.

In the case of `COC(C)(C)C(=O)NC(Cc1ccc(N)nc1)C(=O)COc1ccon1` (stereo not drawn) [Compound 59, N-(1-(6-aminopyridin-3-yl)-4-(isoxazol-3-yloxy)-3-oxobutan-2-yl)-2-methoxy-2-methylpropanamide], the IC50 was 100 to 1000 nM.

For the compound `COC(C)(C)C(=O)NC(Cc1ccc(N)nc1)C(=O)COc1c(F)c(F)cc(F)c1F` (stereo not drawn) [Compound 60, N-(1-(6-aminopyridin-3-yl)-3-oxo-4-(2,3,5,6-tetrafluorophenoxy)butan-2-yl)-2-methoxy-2-methylpropanamide], the IC50 was < 100 nM.

In turn, `COC(C)(C)C(=O)NC(Cc1ccc(N)nc1)C(=O)COc1c(F)cccc1F` (stereo not drawn) [Compound 58, N-(1-(6-aminopyridin-3-yl)-4-(2,6-difluorophenoxy)-3-oxobutan-2-yl)-2-methoxy-2-methylpropanamide] came in with an IC50 of 100 to 1000 nM.

In turn, `N#CN1CCC[C@H]1/C=C/c1ccnc(N)c1` [Compound 32, (S,E)-2-(2-(2-aminopyridin-4-yl)vinyl)pyrrolidine-1-carbonitrile] displayed an IC50 of 100 to 1000 nM.

Compound `N#CN1CCCC1COc1ccnc(N)c1` (stereo not drawn) [Compound 3, 2-(((2-aminopyridin-4-yl)oxy)methyl)pyrrolidine-1-carbonitrile] showed an IC50 of 100 to 1000 nM.

In the case of `CNc1nccc2cc([C@@H]3CCCN3C#N)ccc12` [Compound 51a, (S)-2-(1-(methylamino)isoquinolin-6-yl)pyrrolidine-1-carbonitrile], the IC50 is 10000 to 100000 nM.

Compound `COC(C)(C)C(=O)NC(Cc1ccnc(N)c1)C(=O)COc1c(F)ccc(F)c1F` (stereo not drawn) [Compound 64, N-(1-(2-aminopyridin-4-yl)-3-oxo-4-(2,3,6-trifluorophenoxy)butan-2-yl)-2-methoxy-2-methylpropanamide] gave an IC50 of 100 to 1000 nM.

For `N#CN1C[C@@H](O)C[C@H]1c1ccc2c(N)nccc2c1` [Compound 50a, (2S,4S)-2-(1-aminoisoquinolin-6-yl)-4-hydroxypyrrolidine-1-carbonitrile], the IC50 is < 100 nM.

`N#CN1CCC[C@H]1COc1cc(N)ncc1Cl` [Compound 41, (S)-2-(((2-amino-5-chloropyridin-4-yl)oxy)methyl)pyrrolidine-1-carbonitrile] showed an IC50 of 10000 to 100000 nM.

`N#CN1CCC[C@H]1CSc1ccnc(N)c1` [Compound 28, (S)-2-(((2-aminopyridin-4-yl)thio)methyl)pyrrolidine-1-carbonitrile]: the IC50 was in the range of 1000 to 10000 nM.

In the case of `Nc1cc(CC(NC(=O)C2CCCC2)C(=O)COc2ccon2)ccn1` (stereo not drawn) [Compound 70, N-(1-(2-aminopyridin-4-yl)-4-(isoxazol-3-yloxy)-3-oxobutan-2-yl)cyclopentanecarboxamide], the IC50 is 100 to 1000 nM.

As to `Cc1cnc(N)cc1OC[C@@H]1CCCN1C#N` [Compound 29, (S)-2-(((2-amino-5-methylpyridin-4-yl)oxy)methyl)pyrrolidine-1-carbonitrile], the IC50 lay in the range of 10000 to 100000 nM.

Still in this test, the particulars now being: Activity (RgpB IC50), compound not tested above 1 μM; 0.02 nM RgpB, 10 μM Boc-Phe-Ser-Arg-MCA, 90 minutes, 37° C.
Take `COC(C)(C)C(=O)NC(Cc1ccnc(N)c1)C(=O)COC(C(F)(F)F)C(F)(F)F` (stereo not drawn) [Compound 73, N-(1-(2-aminopyridin-4-yl)-4-((1,1,1,3,3,3-hexafluoropropan-2-yl)oxy)-3-oxobutan-2-yl)-2-methoxy-2-methylpropanamide]: the IC50 was > 1000 nM.
